Assay results as given in ChEMBL document CHEMBL4725265, “Short chain α-pyrones capable of potentiating penicillin G against Pseudomonas aeruginosa” (Bioorg Med Chem Lett, 2020).
Calls of active or inactive are those of the source.

Key:
[1] = system: Pseudomonas aeruginosa; assay: Antibiofilm activity against Pseudomonas aeruginosa by crystal violet staining based assay; type: functional, organism-based
[2] = system: Staphylococcus aureus; assay: Potentiation of penicillin G-induced antibacterial activity against Staphylococcus aureus assessed as penicillin G MIC at 50 uM after 12 to 24 hrs (reference value: […] microg/ml); type: functional; conditions: time hrs 12-24
[3] = system: Escherichia coli; assay: Potentiation of vancomycin-induced antibacterial activity against Escherichia coli assessed as vancomycin MIC at 50 uM after 12 to 24 hrs (reference value: 64 microg/ml); type: functional; conditions: time hrs 12-24
[4] = system: Bacillus subtilis; assay: Potentiation of amoxicillin-induced antibacterial activity against Bacillus subtilis assessed as fold reduction in amoxicillin MIC at 50 uM after 12 to 24 hrs relative to amoxicillin MIC alone; type: functional; conditions: time hrs 12-24
[5] = system: Pseudomonas aeruginosa; assay: Potentiation of vancomycin-induced antibacterial activity against Pseudomonas aeruginosa assessed as fold reduction in vancomycin MIC at 50 uM after 12 to 24 hrs relative to vancomycin MIC alone; type: functional; conditions: time hrs 12-24
[6] = system: Staphylococcus aureus; assay: Potentiation of vancomycin-induced antibacterial activity against Staphylococcus aureus assessed as fold reduction in vancomycin MIC at 50 uM after 12 to 24 hrs relative to vancomycin MIC alone; type: functional; conditions: time hrs 12-24
[7] = system: Escherichia coli; assay: Potentiation of amoxicillin-induced antibacterial activity against Escherichia coli assessed as fold reduction in amoxicillin MIC at 50 uM after 12 to 24 hrs relative to amoxicillin MIC alone; type: functional; conditions: time hrs 12-24
[8] = system: Staphylococcus aureus; assay: Potentiation of amoxicillin-induced antibacterial activity against Staphylococcus aureus assessed as fold reduction in amoxicillin MIC at 50 uM after 12 to 24 hrs relative to amoxicillin MIC alone; type: functional; conditions: time hrs 12-24
[9] = system: Pseudomonas aeruginosa; assay: Antibacterial activity against Pseudomonas aeruginosa; type: functional, organism-based
[10] = system: Escherichia coli; assay: Potentiation of penicillin G-induced antibacterial activity against Escherichia coli assessed as fold reduction in penicillin G MIC at 50 uM after 12 to 24 hrs relative to penicillin G MIC alone; type: functional; conditions: time hrs 12-24
[11] = system: Pseudomonas aeruginosa; assay: Potentiation of erythromycin-induced antibacterial activity against Pseudomonas aeruginosa assessed as erythromycin MIC at 50 uM after 12 to 24 hrs (reference value: 0.5 microg/ml); type: functional; conditions: time hrs 12-24
[12] = system: Escherichia coli; assay: Antibacterial activity against Escherichia coli; type: functional, organism-based
[13] = system: Staphylococcus aureus; assay: Potentiation of penicillin G-induced antibacterial activity against Staphylococcus aureus assessed as fold reduction in penicillin G MIC at 50 uM after 12 to 24 hrs relative to penicillin G MIC alone; type: functional; conditions: time hrs 12-24
[14] = system: Pseudomonas aeruginosa; assay: Potentiation of penicillin G-induced antibacterial activity against Pseudomonas aeruginosa assessed as penicillin G MIC at 50 uM after 12 to 24 hrs (Rvb > 128 microg/ml); type: functional; conditions: time hrs 12-24
[15] = system: Bacillus subtilis; assay: Potentiation of penicillin G-induced antibacterial activity against Bacillus subtilis assessed as penicillin G MIC at 50 uM after 12 to 24 hrs (reference value: 64 microg/ml); type: functional; conditions: time hrs 12-24
[16] = system: Bacillus subtilis; assay: Potentiation of vancomycin-induced antibacterial activity against Bacillus subtilis assessed as fold reduction in vancomycin MIC at 50 uM after 12 to 24 hrs relative to vancomycin MIC alone; type: functional; conditions: time hrs 12-24
[17] = system: Escherichia coli; assay: Potentiation of erythromycin-induced antibacterial activity against Escherichia coli assessed as erythromycin MIC at 50 uM after 12 to 24 hrs (reference value: 1 microg/ml); type: functional; conditions: time hrs 12-24
[18] = system: Escherichia coli; assay: Potentiation of amoxicillin-induced antibacterial activity against Escherichia coli assessed as amoxicillin MIC at 50 uM after 12 to 24 hrs (reference value: 4 microg/ml); type: functional; conditions: time hrs 12-24
[19] = system: Escherichia coli; assay: Potentiation of penicillin G-induced antibacterial activity against Escherichia coli assessed as penicillin G MIC at 50 uM after 12 to 24 hrs (reference value: 64 microg/ml); type: functional; conditions: time hrs 12-24
[20] = system: Bacillus subtilis; assay: Antibacterial activity against Bacillus subtilis; type: functional, organism-based
[21] = system: Pseudomonas aeruginosa; assay: Potentiation of amoxicillin-induced antibacterial activity against Pseudomonas aeruginosa assessed as amoxicillin MIC at 50 uM after 12 to 24 hrs (reference value: 2 microg/ml); type: functional; conditions: time hrs 12-24
[22] = system: Pseudomonas aeruginosa; assay: Potentiation of vancomycin-induced antibacterial activity against Pseudomonas aeruginosa assessed as vancomycin MIC at 50 uM after 12 to 24 hrs (reference value: 1 microg/ml); type: functional; conditions: time hrs 12-24
[23] = system: Staphylococcus aureus; assay: Potentiation of erythromycin-induced antibacterial activity against Staphylococcus aureus assessed as fold reduction in erythromycin MIC at 50 uM after 12 to 24 hrs relative to erythromycin MIC alone; type: functional; conditions: time hrs 12-24
[24] = system: Bacillus subtilis; assay: Potentiation of vancomycin-induced antibacterial activity against Bacillus subtilis assessed as vancomycin MIC at 50 uM after 12 to 24 hrs (reference value: 64 microg/ml); type: functional; conditions: time hrs 12-24
[25] = system: Pseudomonas aeruginosa; assay: Potentiation of amoxicillin-induced antibacterial activity against Pseudomonas aeruginosa assessed as fold reduction in amoxicillin MIC at 50 uM after 12 to 24 hrs relative to amoxicillin MIC alone; type: functional; conditions: time hrs 12-24
[26] = system: Staphylococcus aureus; assay: Antibacterial activity against Staphylococcus aureus; type: functional, organism-based
[27] = system: Escherichia coli; assay: Potentiation of erythromycin-induced antibacterial activity against Escherichia coli assessed as fold reduction in erythromycin MIC at 50 uM after 12 to 24 hrs relative to erythromycin MIC alone; type: functional; conditions: time hrs 12-24
[28] = system: Bacillus subtilis; assay: Potentiation of erythromycin-induced antibacterial activity against Bacillus subtilis assessed as fold reduction in erythromycin MIC at 50 uM after 12 to 24 hrs relative to erythromycin MIC alone; type: functional; conditions: time hrs 12-24
[29] = system: Bacillus subtilis; assay: Potentiation of erythromycin-induced antibacterial activity against Bacillus subtilis assessed as erythromycin MIC at 50 uM after 12 to 24 hrs (reference value: 0.5 microg/ml); type: functional; conditions: time hrs 12-24
[30] = system: Bacillus subtilis; assay: Potentiation of amoxicillin-induced antibacterial activity against Bacillus subtilis assessed as amoxicillin MIC at 50 uM after 12 to 24 hrs (reference value: 64 microg/ml); type: functional; conditions: time hrs 12-24
[31] = system: Staphylococcus aureus; assay: Potentiation of vancomycin-induced antibacterial activity against Staphylococcus aureus assessed as vancomycin MIC at 50 uM after 12 to 24 hrs (reference value: 0.5 microg/ml); type: functional; conditions: time hrs 12-24
[32] = system: Pseudomonas aeruginosa; assay: Antibacterial activity against Pseudomonas aeruginosa assessed as cell wall perturbation by XTT assay; type: functional, organism-based
[33] = system: Staphylococcus aureus; assay: Potentiation of amoxicillin-induced antibacterial activity against Staphylococcus aureus assessed as amoxicillin MIC at 50 uM after 12 to 24 hrs (reference value: 128 microg/ml); type: functional; conditions: time hrs 12-24
[34] = system: Bacillus subtilis; assay: Potentiation of penicillin G-induced antibacterial activity against Bacillus subtilis assessed as fold reduction in penicillin G MIC at 50 uM after 12 to 24 hrs relative to penicillin G MIC alone; type: functional; conditions: time hrs 12-24
[35] = system: Staphylococcus aureus; assay: Potentiation of erythromycin-induced antibacterial activity against Staphylococcus aureus assessed as erythromycin MIC at 50 uM after 12 to 24 hrs (reference value: 0.5 microg/ml); type: functional; conditions: time hrs 12-24
[36] = system: Pseudomonas aeruginosa; assay: Potentiation of penicillin G-induced antibacterial activity against Pseudomonas aeruginosa assessed as fold reduction in penicillin G MIC at 50 uM after 12 to 24 hrs relative to penicillin G MIC alone; type: functional; conditions: time hrs 12-24
[37] = system: Escherichia coli; assay: Potentiation of vancomycin-induced antibacterial activity against Escherichia coli assessed as fold reduction in vancomycin MIC at 50 uM after 12 to 24 hrs relative to vancomycin MIC alone; type: functional; conditions: time hrs 12-24
[38] = system: Pseudomonas aeruginosa; assay: Potentiation of erythromycin-induced antibacterial activity against Pseudomonas aeruginosa assessed as fold reduction in erythromycin MIC at 50 uM after 12 to 24 hrs relative to erythromycin MIC alone; type: functional; conditions: time hrs 12-24
[39] = system: Pseudomonas aeruginosa; assay: Antibacterial activity against Pseudomonas aeruginosa PAO1 assessed as growth inhibition by micro dilution assay; type: functional
[40] = system: Pseudomonas aeruginosa; assay: Antibacterial activity against Pseudomonas aeruginosa GKCW120 harboring P6 deletion mutant assessed as growth inhibition incubated for 8 hrs by micro dilution assay; type: functional
[41] = system: Pseudomonas aeruginosa; assay: Antibacterial activity against Pseudomonas aeruginosa GKCW120 harboring P6 deletion mutant assessed as growth inhibition incubated for 24 hrs by micro dilution assay; type: functional

CCC(=O)c1c(O)cc(CC)oc1=O
64 µg/mL: MIC [2] | MIC [3] | MIC [15] | MIC [19] | MIC [24] | MIC [30]
inactive: Activity [1] | Activity [32]
1 µg/mL: MIC [17] | MIC [22]
1: Ratio [4] | Ratio [5] | Ratio [6] | Ratio [7] | Ratio [8] | Ratio [10] | Ratio [13] | Ratio [16] | Ratio [23] | Ratio [25] | Ratio [27] | Ratio [28] | Ratio [34] | Ratio [37] | Ratio [38]
2 µg/mL: MIC [21]
0.5 µg/mL: MIC [11] | MIC [14] | MIC [29] | MIC [31] | MIC [35]
> 1000 µg/mL: IC50 [9]
4 µg/mL: MIC [18]
> 5000 µM: MIC [9]
>256: Ratio [36]
> 500 µM: MIC [12] | MIC [20] | MIC [26]
128 µg/mL: MIC [33]
> 100 µg/mL: IC50 [12] | IC50 [20] | IC50 [26]

CCCc1c(O)cc(CC)oc1=O
> 5000 µM: MIC [9]
> 100 µg/mL: IC50 [12] | IC50 [20] | IC50 [26]
4 µg/mL: MIC [18]
> 500 µM: MIC [12] | MIC [20] | MIC [26]
> 1000 µg/mL: IC50 [9]
inactive: Activity [1] | Activity [32]
1 µg/mL: MIC [17] | MIC [22]
0.5 µg/mL: MIC [11] | MIC [29] | MIC [31] | MIC [35]
>1: Ratio [36]
64 µg/mL: MIC [2] | MIC [3] | MIC [15] | MIC [19] | MIC [24] | MIC [30]
2 µg/mL: MIC [21]
1: Ratio [4] | Ratio [5] | Ratio [6] | Ratio [7] | Ratio [8] | Ratio [10] | Ratio [13] | Ratio [16] | Ratio [23] | Ratio [25] | Ratio [27] | Ratio [28] | Ratio [34] | Ratio [37] | Ratio [38]
128 µg/mL: MIC [14] | MIC [33]

CC1(C)S[C@@H]2[C@H](NC(=O)Cc3ccccc3)C(=O)N2[C@H]1C(=O)O [PENICILLIN G]
0.5 µg/mL: MIC [40]
> 128 µg/mL: MIC [39] | MIC [41]
